Results on 4 compounds are retold here after US20030199424A1, “Method of treatment and/or prophylaxis” (priority 2002, published 2003).

“Also recorded” adds a separate entry of the source. Read-outs that look alike come from different tables or passages of the source.

In data set [1] the test system is STZ-diabetic rats. The conditions noted are these: given to rats 4 wks after induction of diabetes with STZ (Maxfield et al., 1993); cited from earlier work.
In data set [2] the test system is STZ-diabetic rats. Kind of data set: Reversal protocol: AT1 antagonist from 12 wks post-STZ, morphine antinociception. As to conditions: tested at 16 wks post-STZ.
Procedure: STZ-diabetic rats (n=18) were allocated to one of three experimental groups. Groups one and two received once-daily oral administration of antihypertensive doses of one of the AT1-antagonists, viz candesartan (2.0 mg/kg/day)or losartan (20 mg/kg/day), commencing at 12 weeks post-STZ administration (day 0). The third group (control STZ-diabetic rats) received no treatment.
(§1) The mean (±SEM) percentage maximum AUC (% Max AUC) was calculated according to the following formula: [formula]
The Mann-Whitney test was used to compare %MAX AUC values between treatment groups. The statistical significance criterion was p<0.05.
Data set [3] has as its system non-diabetic rats. Kind of data set: Opioid-mediated antinociception (Von Frey, % MPE) in non-diabetic control rats. Format: in vivo, rat. As to conditions: for ED50: Rattus norvegicus. The protocol:
A second group of STZ-diabetic rats received vehicle (DMSO:water 10:90) by oral gavage (protocol-control rats). In the third group, weight-matched, naive, non-diabetic control rats (non-diabetic candesartan control rats) were also treated with candesartan for one wk prior to opioid antinociceptive testing to determine any intrinsic effects of candesartan on baseline pain scores and on opioid-mediated antinociception.
The statistical significance criterion was p<0.05.

In data set [4] the test system is STZ-diabetic rats. The conditions noted are these: s.c. oxycodone; STZ-diabetic rats over 24 wk study (Smith et al., 2001); cited from earlier work.
In data set [5] the target is T1, CYP2D6 (Homo sapiens, UniProt P10635).
T1 construct: low extent of CYP2D6-mediated O-demethylation of oxycodone to oxymorphone in humans; host or cells: human subjects (in vivo metabolism)
As to conditions: humans, CYP2D6-mediated; cited from earlier work.

For data set [6], the system named is STZ-diabetic rats. The experiment in a line: Opioid-mediated antinociception (Von Frey, % MPE) in STZ-diabetic rats. As to conditions: for ED50: Rattus norvegicus.
Procedure: In all cases, opioids were administered by a single s.c. injection (100 μL) into the dorsal region at the base of the neck whilst under light CO2/O2 (50:50%) anaesthesia using a 250 μL Hamilton syringe. […] By contrast, the opioid-naïve, weight-matched, non-diabetic candesartan control rats were given high-dose oral candesartan (2 mg/kg/day) for 7 days before opioid testing was initiated.
Immediately prior to administration of s.c. bolus doses of either opioid, baseline paw withdrawal thresholds were quantified using VFFs in an identical manner to the weekly baseline Von Frey monitoring described above. Following s.c. opioid administration, VFF assessments were performed at the following post-dosing times: 15, 30, 45, 60, 90, 120 and 180 min.
The VFF scores for individual rats were converted to the Percentage of the Maximum Possible Antinociceptive Effect (% MPE), according the following formula (Brady & Holtzmann, 1982): [formula]
as §1
ED50 estimation was facilitated by inclusion of the theoretical maximum and minimum % Max AUC values. The Mann-Whitney test was used to compare %MPE AUC ED50 values between treatment groups. The statistical significance criterion was p<0.05.
The subject of data set [7] is STZ-diabetic rats. The experiment in a line: Von Frey assessment of tactile allodynia (paw withdrawal threshold). Type of data set: in vivo, rat. As for the experimental part: Candesartan treatment was initiated after STZ administration (day 0) but prior to the onset of diabetes. Specifically, candesartan-treated rats received this drug via once-daily oral gavage in one of two dosages: viz a high-dose (2 mg/kg/day) or a low dose (0.5 mg/kg/day). The 2 mg/kg/day dose was chosen on the basis that it is an anti-hypertensive dose both in rats with perfused Ang II-induced hypertension and also in the spontaneously hypertensive rat (SHR) (Nishikawa et al., 1994, Blood Press, Suppl 5: 7-14). The low-dose ([…]) was included to investigate whether a sub-therapeutic dose (in terms of anti-hypertensive activity) of candesartan was efficacious for the treatment of PDN. Once initiated, oral once-daily candesartan was administered every day for 24 wks.
Tactile allodynia, the defining symptom of PDN, manifests as a hypersensitive response to non-noxious stimuli such as touch or light pressure, and was quantified using Von Frey filaments (VFFs). […] However, indirect methods have a questionable correlation with symptomatic severity (Malik et al., 1998, supra; Malik et al., 2001, supra). Therefore direct quantification of symptom severity using VFF assessment was used to obtain clinically relevant end points.
For each antinociceptive testing session, rats were placed in wire mesh metabolic cages (20 cm×20 cm×20 cm) and allowed to acclimatise to the test environment for approximately 10-15 min prior to the commencement of experiments. Calibrated VFFs, delivering a force in the range 2-20 g, were then applied to the plantar surface of the hind-paw to determine the paw withdrawal thresholds defined as the minimum force necessary to elicit a brisk foot withdrawal reflex. Commencing with the VFF delivering the lowest mechanical force, the filament was applied to the plantar surface of the footpad until buckling of the filament was observed. Absence of a response after approximately 3 s prompted application of the next VFF of increasing force to the footpad.
The onset and progression of the development of tactile allodynia in all STZ-diabetic rats were quantified by once weekly VFF paw withdrawal testing. Specifically for each rat, three separate assessments of paw withdrawal thresholds were undertaken, each approximately 5 min apart.

Data set [8] can be described thus: Body weight, metabolic signs and general health of STZ-diabetic rats. The conditions noted are these: 24 wks post-STZ rats, cessation of chronic candesartan 2.0 mg/kg/day. Type of data set: in vivo, rat. The source says:
Induction of STZ-diabetes produced an initial ≈5-10% reduction in (mean±SEM) body weight from 233 (±1.99) g pre-STZ administration to 218 (±3.28) g at 4 wks post-STZ, followed by a gradual return to the pre-study weight over the ensuing 6-mth study period (FIG. 1).
One rat died 5 wks after the cessation of candesartan therapy.

Setting [9] is: oxycodone 2.0 mg/kg s.c., candesartan (0.5 mg/kg/day) treated STZ-diabetic rats, 12 wks post-STZ.
Setting [10] is: oxycodone 2.0 mg/kg s.c., candesartan (0.5 mg/kg/day) treated STZ-diabetic rats, 21 wks post-STZ.
[11] abbreviates: oxycodone 2.0 mg/kg s.c., candesartan (0.5 mg/kg/day) treated STZ-diabetic rats, 24 wk post-STZ.
[12] abbreviates: oxycodone 2.0 mg/kg s.c., control STZ-diabetic rats, 9 wks post-STZ.
[13] abbreviates: oxycodone 2.0 mg/kg s.c., control STZ-diabetic rats, 12 wks post-STZ.
Where [14] appears, read: oxycodone […] s.c., candesartan (0.5 mg/kg/day) treated STZ-diabetic rats, 3 wks post-STZ.
Setting [15] is: oxycodone […] s.c., candesartan (0.5 mg/kg/day) treated STZ-diabetic rats, 9 wks post-STZ.
The mark [16] stands for this setting: oral candesartan 0.5 mg/kg/day, by 22 wks post-STZ.
[17] abbreviates: oral candesartan 2 mg/kg/day once daily, 24 wk post-STZ study period, relative to non-diabetic control rats.

T1 sequence (P10635 whole entry): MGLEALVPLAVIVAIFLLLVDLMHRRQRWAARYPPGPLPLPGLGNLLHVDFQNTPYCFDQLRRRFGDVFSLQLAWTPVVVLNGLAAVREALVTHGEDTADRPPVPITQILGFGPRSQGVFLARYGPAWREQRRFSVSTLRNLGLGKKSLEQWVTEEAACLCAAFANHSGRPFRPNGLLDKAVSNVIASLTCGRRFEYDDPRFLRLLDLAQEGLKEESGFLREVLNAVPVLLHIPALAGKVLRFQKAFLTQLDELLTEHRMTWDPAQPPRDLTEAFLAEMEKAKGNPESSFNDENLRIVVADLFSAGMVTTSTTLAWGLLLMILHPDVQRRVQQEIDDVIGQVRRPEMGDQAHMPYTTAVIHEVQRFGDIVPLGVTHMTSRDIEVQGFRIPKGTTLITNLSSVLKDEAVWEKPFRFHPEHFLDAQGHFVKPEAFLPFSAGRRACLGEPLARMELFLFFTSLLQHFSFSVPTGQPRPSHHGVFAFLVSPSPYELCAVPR

As for `CCc1cc2c(c(OCc3ccc(-c4ccccc4-c4nnn[nH]4)cc3)c1)CCCC2` [ZD 8731], in data set [1], the “Nerve blood flow (NBF) deficits” value is recorded as “significant improvements” and the “Reduction in nerve conduction velocity (NCV)” value was “completely reverses”.
For the compound `CCCCc1nc(Cl)c(CO)n1Cc1ccc(-c2ccccc2-c2nnn[nH]2)cc1` [losartan], the “Effect on morphine's antinociceptive effects (s.c. morphine 6.1 mg/kg)” value in data set [2] (oral losartan 20 mg/kg/day for 4 wks commencing 12 wks post-STZ) is on record as “preserved morphine's antinociceptive effects; also recorded: morphine sensitivity was preserved”.
In the case of `COc1ccc2c3c1O[C@H]1C(=O)CC[C@@]4(O)[C@@H](C2)N(C)CC[C@]314` [oxycodone], the ED50 is 1.2 mg/kg in data set [3] (sc, control untreated non-diabetic rats, read-out: mean (±SEM) ED50 of s.c. oxycodone); 1.1 mg/kg in data set [3] (non-diabetic control rats on high-dose oral candesartan 2.0 mg/kg/day, read-out: ED50 of s.c. oxycodone); 1.4 mg/kg in data set [6] (504 h, read-out: mean (±SEM) ED50 of s.c. oxycodone); 1.3 mg/kg in data set [6] (1512 h, read-out: mean (±SEM) ED50 of s.c. oxycodone); 1.1 mg/kg in data set [6] (4032 h, read-out: mean (±SEM) ED50 of s.c. oxycodone); approximately 1.5 mg/kg in data set [6] (sc, 504 h, read-out: approximate ED50 oxycodone dose). Moreover, the ED50 was approximately 2 mg/kg in data set [6] (sc, 2016 h, read-out: approximate ED50 oxycodone dose) and approximately 3.2 mg/kg in data set [6] (sc, 4032 h, read-out: approximate ED50 oxycodone dose). Further, the “Mean (±SEM) % MPE AUC” value is listed as 155 (±8.5) % MPE.h in data set [3] (oxycodone […] s.c., candesartan (2.0 mg/kg/day) treated non-diabetic rats); 116 (±8.2) % MPE.h in data set [6] (setting [9]); 171 (±8.3) % MPE.h in data set [6] (setting [10]); 145 (±13.0) % MPE.h in data set [6] (setting [11]); 162 (±3.2) % MPE.h in data set [6] (setting [12]); 168 (±5.2) % MPE.h in data set [6] (setting [13]). Besides, the “Mean (±SEM) % MPE AUC” value in data set [6] (oxycodone 2.2** mg/kg s.c., candesartan (2.0 mg/kg/day) treated STZ-diabetic rats, 12 wks post-STZ) is on record as 158 (±6.9) % MPE.h; in data set [6] (oxycodone […] s.c., STZ-diabetic rats, 4 wks candesartan (2.0 mg/kg/day) re-initiation), 157 (±8.5) % MPE.h; in data set [6] (setting [14]), 131 (±7.9) % MPE.h; in data set [6] (setting [15]), 122 (±9.1) % MPE.h; in data set [6] (oxycodone […] s.c., candesartan (2.0 mg/kg/day) treated STZ-diabetic rats, 3 wks post-STZ), 120 (±8.9) % MPE.h; in data set [6] (oxycodone […] s.c., candesartan (2.0 mg/kg/day) treated STZ-diabetic rats, 9 wks post-STZ) it was 136 (±13.3) % MPE.h. The “decrease in potency relative to non-diabetic control rats” value in data set [4] was 4 fold. In addition, the “fraction of each dose O-demethylated to oxymorphone” value in data set [5] was less than 5%. For the same compound, the “Mean (±SEM) dose normalised % MPE AUC” value in data set [6] (setting [9]) is listed as 67.70 (±4.111) % MPE AUC.h.kg.mg^−1; in data set [6] (setting [10]), 85.34 (±4.134) % MPE AUC.h.kg.mg^−1; in data set [6] (setting [11]), 72.45 (±6.527) % MPE AUC.h.kg.mg^−1; in data set [6] (setting [12]) it was 80.8 (±1.6) % MPE AUC.h.kg.mg^−1; in data set [6] (setting [13]) it was 84.2 (±2.6) % MPE AUC.h.kg.mg^−1; in data set [6] (setting [14]) it was 109.5 (±6.549) % MPE AUC.h.kg.mg^−1. Besides, the “Mean (±SEM) dose normalised % MPE AUC” value was 102.1 (±7.611) % MPE AUC.h.kg.mg^−1 in data set [6] (setting [15]); 115.5 (±3.1) % MPE AUC.h.kg.mg^−1 in data set [6] (oxycodone […] s.c., control STZ-diabetic rats, 3 wks post-STZ); 44.1 (±2.4) % MPE AUC.h.kg.mg^−1 in data set [6] (oxycodone […] s.c., control STZ-diabetic rats, 24 wks post-STZ). For the same compound, the “decrease in antinociceptive response (%MPE AUC) versus non-diabetic protocol control rats” value in data set [6] (oxycodone […] s.c., candesartan (2.0 mg/kg/day) STZ-diabetic rats, 3 wks post-STZ) is on record as “≈ 20%”. The “decrease in oxycodone potency versus non-diabetic protocol control rats” value in data set [6] (oxycodone […], candesartan (0.5 mg/kg/day) STZ-diabetic rats, 9 wks post-STZ) came out at 20%. In data set [6] (oxycodone, candesartan (0.5 mg/kg/day) STZ-diabetic rats, by 12 wks post-STZ), the “decrease in potency versus protocol controls” value is recorded as approximately 50%. Moreover, the “decrease in dose-normalised %MPE AUC versus protocol-control non-diabetic rats” value in data set [6] (oxycodone, low-dose candesartan (0.5 mg/kg/day) STZ-diabetic rats, 24 wks post-STZ) is listed as approximately 1.5 fold.
With candesartan, the “Mean (±SEM) paw withdrawal threshold” value in data set [7] (24 wks post-STZ on oral candesartan 2.0 mg/kg/day, immediately prior to cessation) is 11.9 (±0.2) g; in data set [7] (six wks after cessation of chronic oral candesartan 2.0 mg/kg/day), 6.0 (±0.3) g; in data set [7] (within two wks of re-initiation of oral candesartan 2.0 mg/kg/day) it was 11.3 ± 0.1 g. In addition, the “Development of tactile allodynia (Von Frey filaments)” value was “only delayed but did not prevent the development of tactile allodynia” in data set [7] (oral candesartan 0.5 mg/kg/day once daily for 24 wks from STZ administration) and “completely attenuated the development of tactile allodynia” in data set [7] (oral candesartan 2.0 mg/kg/day once daily for 24 wks from STZ administration). In addition, the “Paw withdrawal latencies versus rats given high-dose candesartan” value in data set [7] (setting [16]) is reported as “significantly lower”. For the same compound, the “Paw withdrawal thresholds versus untreated STZ-diabetic control rats” value in data set [7] (setting [16]) is given as “not significantly different”. Moreover, in data set [7] (oral candesartan 2.0 mg/kg/day, 24 wks post-STZ), the “Mean paw withdrawal threshold versus non-diabetic control rodents” value is on record as “not significantly different”. Moreover, the “Paw withdrawal thresholds after re-initiation of treatment” value in data set [7] (re-initiation of oral candesartan 2.0 mg/kg/day for six wks after six wks cessation) is “restored the paw withdrawal thresholds”. Besides, in data set [8], the “Physical appearance and health after cessation of treatment” value is “apparent general decline in the physical appearance and health”. Besides, the “Effect on loss of morphine potency” value in data set [6] (oral candesartan 0.5 mg/kg/day once daily, relative to control untreated STZ-diabetic rats) was “attenuated the loss of morphine potency”. Moreover, the “Effect on temporal loss of morphine potency and efficacy” value in data set [6] (setting [17]) was “completely prevented the temporal loss of morphine potency and efficacy”. The “Effect on temporal loss of oxycodone potency and efficacy” value in data set [6] (setting [17]) was “completely prevented the temporal loss of oxycodone potency and efficacy”. Moreover, in data set [2] (oral candesartan 2 mg/kg/day for 4 wks commencing 12 wks post-STZ), the “Effect on morphine's antinociceptive effects (s.c. morphine 6.1 mg/kg)” value is “preserved morphine's antinociceptive effects; also recorded: morphine sensitivity was preserved”.

One may read the ED50 as the midpoint of the dose-response relation.
